From PMC10458721, “Monitoring Both Extended and Tryptic Forms of Stable Isotope-Labeled Standard Peptides Provides an Internal Quality Control of Proteolytic Digestion in Targeted Mass Spectrometry-Based Assays” (Molecular & Cellular Proteomics : MCP, 2023)

Assays:
[1] = target: T1, trypsin (Sus scrofa, UniProt P00761); experiment: Apparent first order hydrolysis of extended SIS peptides (kobs, half-life, time to 75% and 95% hydrolyzed); format: in vitro ADME; parameters: purchased Promega V5111; conditions: for Observed rate constant (slope of linear regression of Ln(A,t/A,0) over time): trypsin digestion time course, direct-MRM
Method: By plotting the natural log as a function of time, or ln(At/A0)∼t, with At and A0 reported as the average peak area of hE from process triplicates at time t and time zero, respectively, a linear fit was calculated and kobs was reported as the slope of the fit (supplemental Table S9). […] Hydrolysis or disappearance of extended SIS peptides across both assays were categorized as fast, medium, slow, or pre-digested by Lys-C (not included in plot) by rate constants calculated using apparent first order kinetics. […] MRM, multiple reaction monitoring; SIS, stable isotope-labeled standard.

[2] = target: T1, trypsin; experiment: hE/hT QC metric of proteolytic digestion (pass/marginal/fail); parameters: purchased Promega V5111; conditions: QC panel SIS pairs, 0 to 21 h, three replicates, versus 16-h control digestion
Source text: We next compared the utility of the peak area of hT and the ratio of hE/hT as a QC metric to monitor trypsin digestion efficiency. Measurements from the triplicate control digestion samples were used to define the acceptability criteria for the QC metric. A QC pass was defined as an hT value or hE/hT ratio within 2 SD of the median. A marginal QC was defined as a value that was less than three SD but more than two SD greater than the median. Finally, a QC failure was defined as a value that was three SDs greater than the median. We then tested the ability of the QC metric, as defined by either the hE/hT ratio or hT alone, to detect a loss of assay sensitivity, defined as the endogenous peak area in the stressed condition as a fraction of the control. There were 23 targets (15 for the direct-MRM assay, 8 for the immuno-MRM assay) that had endogenous measurements above the LLOQ in the control digestions and also had extended peptides that were not categorized as ‘pre-digested’.
Finally, to ensure the hE/hT QC metric was not subject to day-to-day variability, we excluded any SIS pairs that failed QC across our replicate, 16-h control digestions (one in the stressor experiment and one in the time course experiment). […]

[3] = fit with R2 > 0.80, min 3-4 time points
[4] = fit with R2 > 0.80, time points chosen to maximize R2 (minimum 4 points)

T1 sequence (P00761 9-231): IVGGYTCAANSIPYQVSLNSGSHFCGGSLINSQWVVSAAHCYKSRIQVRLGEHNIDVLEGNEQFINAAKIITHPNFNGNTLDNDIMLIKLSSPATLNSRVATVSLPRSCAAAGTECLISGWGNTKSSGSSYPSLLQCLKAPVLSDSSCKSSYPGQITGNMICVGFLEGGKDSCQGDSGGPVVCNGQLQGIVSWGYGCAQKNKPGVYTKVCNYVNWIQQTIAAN

Substance | Observed rate constant (slope of linear regression of Ln(A,t/A,0) over time) [1, 3] [min⁻¹] | Observed rate constant (slope of linear regression of Ln(A,t/A,0) over time) [1, 4] [min⁻¹] | also measured
AATC[+57]SKYTELPYGREDVLKE |  |  | Half-life of extended SIS peptide ([1]; direct-MRM trypsin digestion time course, from observed rate constant): 31.34 min
DEVIKEVQEFYKDTYNK [CD9_P21926_1751] | -0.0217 |  | 
DSFRFGAPPHAGGGIGLERVTML [DARS_P14868_1752] | -0.0308 |  | 
DTKSDIIFFQRSVP [IL18_Q14116_1752] | -0.1677 |  | 
EEMEKVLAGETLSVNDPPDVLDRQK [ILF3_Q12906_GO] | -0.0481 |  | 
GEEDNSLSVR[+10] |  |  | hE/hT QC result in trypsin digestion time course [2]: inconsistent QC results across the three replicates prior to the last time point
IERTFHVETPEEREEW [AKT1_P31749_1751] |  | -0.0388 | 
IQVGRNIIHGSDSVESAEKEIGLWF [NME1_P15531_1753] |  | -0.0813 | 
KHRTGDEITYQC[+57]RNGF [CFH_P08603_1752] |  | -0.0473 | 
YTELPYGR[+10] |  |  | hE/hT QC result in trypsin digestion time course [2]: pass QC, then fail (or marginally pass) the QC at the latest time point
